Earlier results, collected in patent publication US9066965B1, “Purified limonin glucoside for prevention and treatment of chronic diseases” (The United States of America, as represented by the …, priority 2012, dated 2015).

What was measured:
[1] = purified flavonoids, hypercholesterolemic men and women; cited from earlier work
[2] = 0.2% in diet, mice fed high fat diets; cited from earlier work
TGRS = biological target: T1, TGRS (Homo sapiens, UniProt Q8TDU6); details: cited from earlier work
T1 sequence (Q8TDU6 1-330): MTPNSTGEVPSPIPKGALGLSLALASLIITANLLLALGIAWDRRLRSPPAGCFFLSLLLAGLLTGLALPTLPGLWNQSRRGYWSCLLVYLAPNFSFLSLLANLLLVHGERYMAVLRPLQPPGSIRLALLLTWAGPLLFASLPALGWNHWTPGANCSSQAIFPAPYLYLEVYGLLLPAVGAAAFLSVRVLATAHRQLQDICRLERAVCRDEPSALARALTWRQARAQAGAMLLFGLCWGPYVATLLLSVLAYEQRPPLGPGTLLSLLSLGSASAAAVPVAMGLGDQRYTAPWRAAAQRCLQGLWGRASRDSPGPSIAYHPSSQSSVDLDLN

Hep G2 cell line = details: cited from earlier work

| SMILES | effect on serum total- and LDL cholesterol [1] | high fat diet induced obesity and hyperglycemia [2] | activation of TGRS (TGRS) | Apo B secretion (Hep G2 cell line) |
| --- | --- | --- | --- | --- |
| C[C@@H]1O[C@@H](O[C@H]2[C@H](Oc3cc(O)c4c(c3)O[C@H](c3ccc(O)cc3)CC4=O)O[C@H](CO)[C@@H](O)[C@@H]2O)[C@H](O)[C@H](O)[C@H]1O [naringin] | did not alter | – | – | – |
| CC(=O)O[C@H]1CC(=O)OC(C)(C)[C@@H]2CC(=O)[C@]3(C)[C@H](CC[C@@]4(C)[C@H](c5ccoc5)OC(=O)[C@H]5O[C@]543)[C@@]12C [nomilin] | – | prevented | activating | – |
| COc1ccc([C@@H]2CC(=O)c3c(O)cc(O[C@@H]4O[C@H](CO[C@@H]5O[C@@H](C)[C@H](O)[C@@H](O)[C@H]5O)[C@@H](O)[C@H](O)[C@H]4O)cc3O2)cc1O [hesperidin] | did not alter | – | – | – |
| CC1(C)O[C@H]2CC(=O)OC[C@]23[C@H]2CC[C@@]4(C)[C@H](c5ccoc5)OC(=O)[C@H]5O[C@]54[C@]2(C)C(=O)C[C@@H]13 [limonin] | – | – | did not activate | significantly decreased |
